# Values of other authors in patent US11291679B1, “Injectable, infusable, instillable ivermectin adjuvant for cancer therapies” (MOUNTAIN VALLEY MD INC., priority 2021, dated 2022).
Compound,variability of cmax in blood plasma levels (blood plasma),variation across the concentrations in the tumor environment (tumor environment),immunogenic cancer cell death and T cell infiltration (breast tumors),"efficacy in vivo (limiting tumor growth) (breast tumors; single agent or combination, synergy p=0.03)"
CCC(C)n1ncn(-c2ccc(N3CCN(c4ccc(OCC5COC(Cn6cncn6)(c6ccc(Cl)cc6Cl)O5)cc4)CC3)cc2)c1=O (stereo not shown) [itraconazole],4-5 fold,~15 fold,–,–
ivermectin,–,–,induces immunogenic cancer cell death (ICD) and robust T cell infiltration into breast tumors,neither agent alone showed efficacy in vivo
